# In patent US20130303788A1, “METHOD OF PRODUCING BIPHENOLIC COMPOUND, NOVEL BIPHENYL COMPOUND AND SYNTHESIS METHOD THEREOF, AND PHARMACEUTICAL COMPOSITION FOR TREATING PARKINSON'S DISEASE” (Tzu Chi University, priority 2012, published 2013):
# Experiments:
# [1] = system: SH-SY5Y human neuroblastoma cells; assay: Effects on MPP+ neurotoxicity, MTT assay; assay type: cell-based; settings: 10 μM or 30 μM; MPP+ 1 mM for 24 hours; FIG. 10
# Experimental: (§1) 3-(4,5-Dimethylthiazol-2-yl)-2,5-diphenyltetrazolium bromide (MTT) assay was conducted generally as follows. A MTT solution was added to culture of the cells in the respective well so that a MTT concentration of 0.5 mg/mL was reached, followed by cultivation for 4 hours. The liquid in the respective well was removed, and dimethylsulfoxide (DMSO) was added into the respective well to dissolve formazan dye. Absorbance of the mixture in the respective well at 570 nm (OD570) was measured using an OPTImax microplate reader (Molecular Devices).
# SH-SY5Y human neuroblastoma cells were exposed to neurotoxic 1-methyl-4-phenylpyridinium (MPP^+) (1 mM) for 24 hours, while the same were treated with the respective one of products 1, 2, 3, 4, 5, 7, and 3,3′-diallyl-biphenyl-4,4′-diol (compound 55) (10 μM or 30 μM).
# (§2) Cell viability was evaluated as follows. The SH-SY5Y human neuroblastoma cells were subjected to the MTT assay as described in section 1 of General Procedures. The relative cell viability (%) was calculated by substituting the absorbance into the following formula:
# (§3) where G=relative cell viability • H=OD570 of the pathological control, or the SH-SY5Y human neuroblastoma cells treated with the respective biphenolic compound of formula (I) • I=OD570 of the normal control The obtained data were subjected to the statistical analysis as described in section 5 of General Procedures.
# [2] = system: SH-SY5Y human neuroblastoma cells; assay: Effects on oxidative stress (TBHP or CHP), MTT assay; assay type: cell-based; settings: for prevention of cell death (relative cell viability) after exposure to CHP / prevention of cell death (relative cell viability) after exposure to TBHP: 10 μM for 30 minutes, vs pathological control, FIG. 9; for prevention of cell death (relative cell viability) after exposure to CHP: then CHP 300 μM for 3 hours; for prevention of cell death (relative cell viability) after exposure to TBHP: then TBHP 300 μM for 3 hours
# Experimental: as §1
# The SH-SY5Y human neuroblastoma cells were respectively treated with products 1, 2, 3, 4, 5, 7, and 3,3′-diallyl-biphenyl-4,4′-diol (compound 55) (10 μM) for 30 minutes. 3,3′-diallyl-biphenyl-4,4′-diol (compound 55) was prepared from commercially available 4,4′-biphenol (compound 54) generally according to the method as described in Ablard, F. et al., Bioorg. Med. Chem. Lett. 2007, 17, 4428. Subsequently, the SH-SY5Y human neuroblastoma cells were exposed to cumene hydroperoxide (CHP) or tert-butyl hydroperoxide (TBHP) (300 μM, Riedel-de Haen) for 3 hours after the treatment with the respective biphenolic compound of formula (I).
# as §2
# as §3, with “D=relative” for “G=relative”, “E=OD570” for “H=OD570”, “F=OD570” for “I=OD570”
# [3] = system: TH (Tyrosine Hydroxylase); assay: TH expression level (TH immunohistochemistry) in 6-OHDA mouse model of PD; assay type: in vivo, NMRI mice; settings: i.p. 14 consecutive days starting Day 7, Day 21 after 6-OHDA, 16
# Experimental: The respective NMRI mouse was deeply anaesthetized with thiopental (50 mg/kg, intraperitoneally). The respective NMRI mouse was perfused transcardially with a heparin solution (0.05% heparin in 0.1 M PBS), and was subsequently perfused with 100 mL of ice-cold fixative (4% paraformaldehyde in 0.1 M PBS). The brain of the respective NMRI mouse was removed and was postfixed in the same ice-cold fixative for 12 hours, followed by dehydration in 30% sucrose in 0.1 M PBS. The brain was frozen and was subjected to tissue slicing. Serial coronal sections (a thickness of 20 μm) were cut on a freezing microtome and were placed in PBS. The sections were later processed for free-floating TH or iNOS immunohistochemistry.
# The sections were rinsed three times with PBS (30 minutes for each time), were treated with 3% H2O2/10% methanol in PBS for 30 minutes for quenching the endogenous peroxidase activity, and were rinsed three times with PBS. After preincubation with 0.5% normal goat serum (NGS)/0.2% Triton in PBS, the sections were incubated with a primary antibody (anti-TH antibody or anti-iNOS antibody, 1:5000, Novus Biologicals, Inc., Littleton, Colo., USA) in 0.5% NGS/PBS at 4° C. for 16-18 hours. After being rinsed three times with PBS, the sections were incubated with a biotinylated goat anti-rabbit IgG (1:200) in PBS for 1 hour. Subsequently, the sections were rinsed three times with PBS and were stained with 0.05% diaminobenzidine/0.03% H2O2 in PBS for 5 minutes. The respective section was placed on a gelatin-coated slide, dehydrated through ascending concentrations of alcohol, and covered with a slipcover for observation under a light microscope.
# The obtained data were subjected to the statistical analysis as described in section 5 of General Procedures. TH expression level in the striatum was determined according to the method as described in section 4 of General Procedures.
# TH expression level in the striatum and the substantia nigra (SN), and iNOS expression level in the striatum were determined according to the method as described in section 4 of General Procedures on Day 21 after the injection of 6-OHDA or the vehicle.
# In addition, the optical density regarding the lesioned and unlesioned sites in the striatum and SN of the NMRI mice (e.g., the sham operated control, the pathological control, and the NMRI mice treated with product 1) was determined from the obtained photomicrographs illustrating TH expression level via ImageJ software (National Institutes of Health). The relative optical density was calculated using the following formula:
# where J=relative optical density • K=optical density of the lesioned site • L=optical density of the unlesioned site
# [4] = system: mouse model of PD (6-OHDA unilateral striatal lesion); assay: Apomorphine-induced rotation test in 6-OHDA mouse model of PD; assay type: in vivo, NMRI mice
# Experimental: The respective NMRI mouse was anesthetized with ketamine ([…], intraperitoneally). Subsequently, the respective NMRI mouse was placed into a stereotactic frame with nose and ear bars specially designed for mice. 6-hydroxydopamine (6-OHDA) was injected with saline containing 0.02% ascorbic acid (as a vehicle) into the right striatum of the respective NMRI mouse so that unilateral striatal lesion was induced (i.e., damage to dopaminergic neurons in the unilateral striatum was induced). The injection was conducted at a rate of 1 μL/minute using a Hamilton syringe at the following coordinates: AP: −0.9 mm; ML: −1.9 mm; DV: −2.2 mm with respect to bregma, and a final dose of 15 μg was administered. The needle was left standing for 5 minutes after the injection was finished, and was slowly withdrawn.
# The respective NMRI mouse was allowed to habituate to the ambient environment for 10 minutes before the apomorphine-induced rotation test was performed. Apomorphine was then injected intraperitoneally into the respective NMRI mouse at a dose of 0.5 mg/kg. The respective NMRI mouse was placed in a glass bowl with a diameter of 20 cm and was attached to an automatic rotometer (TSE, Bad Homburg, Germany) via a specially designed harness. Each circular movement exceeding 30° was recorded. The contralateral movements (toward the nonlesioned side) and ipsilateral movements (toward the lesioned side) of the NMRI mice were counted during a period of 60 minutes. The net rotation was calculated according to the following formula:
# where A=net rotation • B=the total number of ipsilateral movements during the period of 60 minutes • C=the total number of contralateral movements during the period of 60 minutes 4. Determination of TH (Tyrosine Hydroxylase) Expression Level and iNOS (Inducible Nitric Oxide Synthase) Expression Level: […]
# 6-OHDA was injected into NMRI mice according to the method as described in section 2 of General procedures. Product 1 or product 2 was administered intraperitoneally to the respective NMRI mouse at a dose of 5 mg/kg, 1 mg/kg, 0.5 mg/kg, 0.1 mg/kg, or 0.05 mg/kg for 14 consecutive days, starting on Day 7 after the 6-OHDA injection. NMRI mice into which a vehicle (saline containing 0.02% ascorbic acid) was injected (generally according to the method as described in section 2 of General Procedures, except that 6-OHDA was not injected), and which were not treated with product 1 or product 2 after the injection of the vehicle, served as a sham operated control. NMRI mice into which 6-OHDA was injected and which were not treated with product 1 or product 2 after the 6-OHDA injection served as a pathological control. The rotational behavior of the NMRI mice was evaluated using the apomorphine-induced rotation test as described in section 3 of General Procedures on Days 7, 14, and 21 after the 6-OHDA injection.
# inflammatory pain = settings: Lin Yi-Ruu et al. (2007); cited from earlier work
# [5] = system: excitotoxicity induced by excitatory amino acids; settings: Lin Yi-Ruu et al. (2006); cited from earlier work
SMILES,concentration dependence of alleviation of MPP+ cytotoxicity [1],prevention of cell death (relative cell viability) after exposure to CHP [2],prevention of cell death (relative cell viability) after exposure to TBHP [2],also measured
"C=CCc1ccc(O)c(-c2ccc(O)c(CCC)c2)c1 [product 4, 5-Allyl-3′-propyl-biphenyl-2,4′-diol]",alleviated the cytotoxicity of MPP^+ in a concentration-dependent manner,significantly prevented cell death,significantly prevented cell death,
"C=CCc1cc(-c2cccc(O)c2CC=C)ccc1O [product 7, 2,3′-Diallyl-biphenyl-3,4′-diol]",alleviated the cytotoxicity of MPP^+ in a concentration-dependent manner,significantly prevented cell death,significantly prevented cell death,
"C=CCc1cc(-c2cc(CCC)ccc2O)ccc1O [product 2, 3′-Allyl-5-propyl-biphenyl-2,4′-diol]",alleviated the cytotoxicity of MPP^+ in a concentration-dependent manner,significantly prevented cell death,significantly prevented cell death,"loss of TH-ir fibers in the striatum, subchronic post-treatment ([3]; FIGS. 14, 15(A)): significantly alleviated the loss of TH-ir fibers; loss of TH-ir fibers in the substantia nigra (SN), subchronic post-treatment ([3]; FIGS. 14, 15(B)): significantly alleviated the loss of TH-ir fibers; unilateral rotations (apomorphine-induced), subchronic post-treatment, 0.1 mg/kg ([4]; 0.1 mg/kg i.p., 14 consecutive days starting Day 7 after 6-OHDA, FIG. 13): significantly inhibited unilateral rotations; unilateral rotations (apomorphine-induced), subchronic post-treatment, 0.5 mg/kg ([4]; 0.5 mg/kg i.p., 14 consecutive days starting Day 7 after 6-OHDA, FIG. 13): significantly inhibited unilateral rotations; unilateral rotations (apomorphine-induced), subchronic post-treatment, 1 mg/kg ([4]; 1 mg/kg i.p., 14 consecutive days starting Day 7 after 6-OHDA, FIG. 13): significantly inhibited unilateral rotations; restoring activity against neurotoxin-induced motor dysfunction compared with product 1 ([4]; subchronic post-treatment, 14 days starting Day 7 after 6-OHDA): more potent restoring activity; rank among the tested biphenolic compounds in preventing cell death, CHP ([2]; 10 μM, CHP 300 μM 3 hours): the most effective in preventing cell death among them; rank among the tested biphenolic compounds in preventing cell death, TBHP ([2]; 10 μM, TBHP 300 μM 3 hours): the most effective in preventing cell death among them"
"C=CCc1ccc(O)c(-c2cc(CC=C)ccc2O)c1 [magnolol, reference compound]",,,,alleviation of inflammatory pain in an animal model (inflammatory pain): effective in alleviating inflammatory pain; neuroprotective effects via anti-oxidative abilities and antagonist actions against excitotoxicity [5]: able to exert neuroprotective effects
"C#CCc1ccc(O)c(-c2ccc(O)c(CC=C)c2)c1 [product 5, 3′-Allyl-5-prop-2-ynyl-biphenyl-2,4′-diol]",alleviated the cytotoxicity of MPP^+ in a concentration-dependent manner,significantly prevented cell death,significantly prevented cell death,
"C=CCc1cc(-c2ccc(O)c(CC=C)c2)ccc1O [compound 55, 3,3′-diallyl-biphenyl-4,4′-diol]",,significantly prevented cell death,significantly prevented cell death,
"CCCc1ccc(O)c(-c2ccc(O)c(CCC)c2)c1 [product 3, 5,3′-Dipropyl-biphenyl-2,4′-diol]",alleviated the cytotoxicity of MPP^+ in a concentration-dependent manner,significantly prevented cell death,significantly prevented cell death,
